Here are results for eleven compounds from publication PMC3290551, “Core Site-Moiety Maps Reveal Inhibitors and Binding Mechanisms of Orthologous Proteins by Screening Compound Libraries” (PLoS ONE, 2012).

Common to all, as to format: biochemical
In experiment [1] the target is T1, H. pylori shikimate kinase (HpSK) (Helicobacter pylori, UniProt P56073).
T1 construct: made in house; host or cells: Escherichia coli (stated for the mutants, which followed the wild-type procedure)
Kind of experiment: Shikimate kinase coupled enzyme inhibition assay (HpSK). Conditions: for Inhibitory effect against shikimate kinase (in words): HpSK; for IC50: 1.6 mM shikimic acid, 2.5 mM ATP, 25°C, pH 7.5.

Experiment [2] deals with T2, M. tuberculosis shikimate kinase (MtSK) (Mycobacterium tuberculosis, UniProt P9WPY3).
T2 construct: His6 (N); made in house; host or cells: E. coli BL-21 (DE3)
T2 sequence (P9WPY3 whole entry): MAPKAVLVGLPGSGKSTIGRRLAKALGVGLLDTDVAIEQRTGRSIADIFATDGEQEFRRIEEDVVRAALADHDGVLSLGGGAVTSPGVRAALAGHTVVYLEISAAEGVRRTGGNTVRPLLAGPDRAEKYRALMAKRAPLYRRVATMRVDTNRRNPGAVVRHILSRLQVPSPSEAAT
Kind of experiment: Shikimate kinase coupled enzyme inhibition assay (MtSK). To be noted: for Inhibitory effect against shikimate kinase (in words): MtSK; for IC50: SK species: Mt, 1.6 mM shikimic acid, 2.5 mM ATP, 25°C, pH 7.5.

The target of experiment [3] is T1, H. pylori shikimate kinase (HpSK). Kind of experiment: Analysis of inhibitor kinetics / inhibitor modality (HpSK). To be noted: for Inhibitor modality with respect to ATP / Inhibitor modality with respect to shikimate: HpSK; for Ki: SK species: Hp. The procedure:
(§1) Shikimate kinase activity was determined by coupling the release of ADP from the SK-catalyzed reaction to the oxidation of NADH using pyruvate kinase (EC 2.7.1.40) and lactate dehydrogenase (EC 1.1.1.27) as coupling enzymes. Shikimate-dependent oxidation of NADH was measured by monitoring the decrease in A340 (ε = 6,200 M^−1 cm^−1). The assay was carried out at 25°C in a mixture of 100 mM Tris-HCl buffer, pH 7.5, 50 mM KCl, 5 mM MgCl2, 1.6 mM shikimic acid, 2.5 mM ATP, 1 mM phosphoenolpyruvate (PEP), 0.1 mM NADH, 2.5 units of pyruvate kinase per ml, and 2.7 units of lactate dehydrogenase per ml. All assays were conducted in a 96-well microplate and analyzed with a spectrophotometer (FLUOstar OPTIMA, BMG LABTECH).
(§2) After the preliminary screening, the inhibitor modality was determined by measuring the effects of inhibitor concentrations on the enzymatic activity as a function of substrate concentration. In the inhibition experiment in which the ATP concentration was fixed at 2.5 mM, shikimate was a varied substrate (0.06, 0.12, 0.24, 0.48, and 0.96 mM) when the concentration of inhibitor was varied from 0 to 50 µM. In parallel, in the inhibition experiment in which the shikimate concentration was fixed at 1.6 mM, ATP was a varied substrate (0.06, 0.12, 0.24, 0.48, and 0.96 mM) when the concentration of inhibitor was varied from 0 to 50 µM. A nonlinear least square-fitting algorithm was applied to the absorbance data to determine the kinetic mechanism data.

Experiment [4] has as its target T2, M. tuberculosis shikimate kinase (MtSK). Nature of the experiment: Analysis of inhibitor kinetics / inhibitor modality (MtSK). Conditions: for Inhibitor modality with respect to ATP / Inhibitor modality with respect to shikimate: MtSK; for Ki: SK species: Mt. The procedure:
as §1, §2

The mark [5] stands for this setting: ATP varied, shikimate fixed at 1.6 mM, read-out: αKi, ATP.
[6] abbreviates: shikimate varied, ATP fixed at 2.5 mM, read-out: αKi, SKM.

Values joined by “and” are separate entries in the source; they are usually repeats but may differ in a detail not shown here. Equal entries are not always repeated. Where two headings read alike, the source gives them in different places.

T1 sequence (P56073 whole entry): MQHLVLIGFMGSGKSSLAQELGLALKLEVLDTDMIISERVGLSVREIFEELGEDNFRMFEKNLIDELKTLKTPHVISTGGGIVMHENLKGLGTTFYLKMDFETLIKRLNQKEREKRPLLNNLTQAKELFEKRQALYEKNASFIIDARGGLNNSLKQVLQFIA

In general, IC50 refers to the concentration that inhibits the measured activity by half. Higher therefore signals lower potency. For the compound `O=C1Nc2ccc(I)cc2/C1=C/c1cc(Br)c(O)c(Br)c1` [GW5074, reference compound], the “Inhibitory effect against shikimate kinase (in words)” value (from here on “Inhibitory effect”) in experiment [1] and in experiment [2] was “showed inhibitory effects” in each case. For the same compound, the IC50 came out at 31.4 µM in experiment [1] (IC50, SK species: Hp) and 29.6 µM in experiment [2].

As for `O=C(Nc1ccc(C(=O)Nc2ccc3c(O)cc(S(=O)(=O)O)cc3c2)cc1)c1ccccc1` [NSC37215], the “Inhibitory effect” value in experiment [1] and in experiment [2] was “lost the inhibitory” each time. For the same compound, the IC50 in experiment [1] (IC50, SK species: Hp) is above 100 µM; in experiment [2] it was above 100 µM.

On to `O=C(Nc1ccc2c(O)cc(S(=O)(=O)O)cc2c1)Nc1ccc2c(O)cc(S(=O)(=O)O)cc2c1` [NSC45174], for which the IC50 was ≤ 10 µM and 7.8 µM in experiment [1] (IC50, SK species: Hp); ≤ 10 µM and 2.8 µM in experiment [2].

`O=S(=O)(O)c1cc(O)c2c(O)c(N=Nc3cccc4ccccc34)c(S(=O)(=O)O)cc2c1` [NSC45208]: the “Inhibitory effect” value in experiment [1] and in experiment [2] was “lost the inhibitory” each time. In addition, the IC50 in experiment [1] (IC50, SK species: Hp) is above 100 µM; in experiment [2] it was above 100 µM.

For the compound `Nc1ccc2c(O)c(/N=N/c3ccc([N+](=O)[O-])cc3)c(S(=O)(=O)O)cc2c1` [NSC45547], the IC50 in experiment [1] (SK species: Hp) is ≤ 10 µM and 7.8 µM.

For `O=C(Nc1ccc2c(O)c(/N=N/c3ccc4c(O)cc(S(=O)(=O)O)cc4c3)c(S(=O)(=O)O)cc2c1)c1ccccc1` [NSC45609], the IC50 in experiment [1] (SK species: Hp) was ≤ 10 µM and 7 µM.

In the case of `Cc1cc(N=Nc2ccc(N=Nc3ccc(N=Nc4ccc(O)c(C(=O)O)c4)cc3)c(S(=O)(=O)O)c2C)c(N)cc1N` [NSC45611], the half-maximal inhibitory concentration (IC50) in experiment [1] (IC50, SK species: Hp) is ≤ 10 µM and 4.8 µM; in experiment [2], ≤ 10 µM and 1.5 µM. The “Inhibitor modality with respect to ATP” value in experiment [3] and in experiment [4] was “competitive inhibitors of ATP” throughout. The “Inhibitor modality with respect to shikimate” value in experiment [3] and in experiment [4] was “competed with shikimate” throughout. Besides, the Ki in experiment [3] (αKi, ATP, ATP varied, shikimate fixed at 1.6 mM) was 1.1 µM; in experiment [3] (αKi, SKM, shikimate varied, ATP fixed at 2.5 mM), 1.7 µM; in experiment [4] (setting [5]), 0.3 µM; in experiment [4] (setting [6]), 0.7 µM.

Turning to `Nc1ccc2c(O)c(N=Nc3ccc4c(O)cc(S(=O)(=O)O)cc4c3)c(S(=O)(=O)O)cc2c1` [NSC162535], the “Inhibitor modality with respect to ATP” value in experiment [3] and in experiment [4] was “competitive inhibitors of ATP” each time. Moreover, the “Inhibitor modality with respect to shikimate” value in experiment [3] and in experiment [4] was “competed with shikimate” throughout. The Ki in experiment [3] (read-out: αKi, ATP, ATP varied, shikimate fixed at 1.6 mM) was 1.9 µM; in experiment [3] (read-out: αKi, SKM, shikimate varied, ATP fixed at 2.5 mM), 1.8 µM; in experiment [4] (setting [5]) it was 0.2 µM; in experiment [4] (setting [6]), 0.6 µM.

For the compound `O=C(NNC(=O)C1c2ccccc2Oc2ccccc21)c1cccc(F)c1` [RH00016], the IC50 in experiment [1] (IC50, SK species: Hp) was 40.2 µM; in experiment [2] it was below 100 µM.

For `O=C(NNC(=O)C1c2ccccc2Oc2ccccc21)c1cccc([N+](=O)[O-])c1` [RH00037], the IC50 in experiment [1] (IC50, SK species: Hp) is 23.8 µM; in experiment [2] it was below 100 µM.

For the compound `N=C(NO)c1ccc(Oc2cc(Cl)cc(Cl)c2)c([N+](=O)[O-])c1` [SPB01099], the IC50 in experiment [1] (SK species: Hp) and in experiment [2] was below 100 µM in each case.
